Here are results for eleven compounds from PMC8541513, “Stereoselective Synthesis of the Di-Spirooxindole Analogs Based Oxindole and Cyclohexanone Moieties as Potential Anticancer Agents” (Molecules, 2021).

The subject of data set [1] is Breast MCF-7. In words: MTT anticancer assay, breast MCF-7 cells. On the set-up: key to IC50, Breast MCF-7: NA means that the tested compound did not show anticancer activity at 30 µM; NS: Not soluble. The settings on record: 1-30 µM, ± SD of three independent experiments; for IC50: Homo sapiens, MCF7, 48 h. The data set is classed as cell-based. Here is the method: (§1) The antiproliferative activity against four cancer cell lines, including prostate PC3, cervical HeLa, and triple-negative breast cancer (MCF-7 and MDA-MB231) was evaluated by MTT assay, while standard drug doxorubicin was used as a reference for comparison (Table 1).
(§2) Cytotoxicity against BJ human fibroblast cells and cytotoxicity against PC3, HeLa, MCF-7, and MDA-MB231 cancer cell lines were evaluated by following the procedure as described in the literature (Supplementary Materials). […]
(§3) The Biological Activity Assays Protocols
(§4) Cytotoxic activity of compounds was evaluated in 96-well flat-bottomed micro plates by using the standard MTT (3-[4, 5-dimethylthiazole-2-yl]-2, 5-diphenyl-tetrazolium bromide) colorimetric assay.
(§5) For this purpose, PC3 cells (Prostate Cancer) / BJ Human fibroblast cells / HeLa cells (Cervical Cancer) / MCF-7 and MDA-MB-231 breast cancer cell line were cultured in Dulbecco’s Modified Eagle Medium, supplemented with 5% of fetal bovine serum (FBS), 100 IU/ml of penicillin and 100 µg/ml of streptomycin in 75 cm2 flasks, and kept in 5% CO2 incubator at 37 °C. Exponentially growing cells were harvested, counted with haemocytometer and diluted with a particular medium. Cell culture with the concentration of 1x10^5 cells/ml was prepared and introduced (100 µL/well) into 96-well plates. After overnight incubation, medium was removed and 200 µL of fresh medium was added with different concentrations of compounds (1-30µM). After 48 hrs, 200 µL MTT (0.5 mg/ml) was added to each well and incubated further for 4 hrs. Subsequently, 100µL of DMSO was added to each well. The extent of MTT reduction to formazan within cells was calculated by measuring the absorbance at 570 nm, using a micro plate reader (Spectra Max plus, Molecular Devices, CA, USA). The cytotoxicity was recorded […]
(§6) (1 picture or pasted object on this page, not shown here) […]
(§7) as concentration causing 50% growth inhibition (IC50) for PC3 cells. The percent inhibition was calculated by using the following formula:
(§8) % inhibition = 100-((mean of O.D of test compound – mean of O.D of negative control)/ (mean of O.D of positive control – mean of O.D of negative control)*100).
(§9) The results (% inhibition) were processed by using Soft- Max Pro software (Molecular Device, USA).
(§10) Standard drug used in the MTT assay was doxorubicin. […]

Data set [2] deals with Cervical HeLa. In words: MTT anticancer assay, cervical HeLa cells. The settings on record: 48 h, 1-30 µM, ± SD of three independent experiments; for IC50: Homo sapiens, HeLa. The data set is classed as cell-based. Here is the method: as §1, §2, §3, §4, §5, §6, §7, §8, §9, §10
In general terms: Tetrazolium assays rely on reduction of a dye to a coloured formazan, in cell work by metabolically active cells.

For data set [3], the system named is Human Fibroblast BJ. Nature of the data set: MTT cytotoxicity assay against BJ human fibroblast cells. The data set is classed as cell-based. The settings on record: 48 h, 1-30 µM, ± SD of three independent experiments. Here is the method:
as §2, §3, §4, §5, §6, §7, §8, §9, §10

Data set [4] deals with Prostate PC3. In words: MTT anticancer assay, prostate PC3 cells. The data set is classed as cell-based. The settings on record: 1-30 µM, ± SD of three independent experiments; for IC50: Homo sapiens, PC-3, 48 h. As for the experimental part: as §1, §2, §3, §4, §5, §6, §7, §8, §9, §10
Data set [5] concerns Breast MDA-MB231. Nature of the data set: MTT anticancer assay, breast MDA-MB231 cells. The arrangement: key to IC50, Breast MDA-MB231: NA means that the tested compound did not show anticancer activity at 30 µM; NS: Not soluble. The data set is classed as cell-based. The settings on record: 1-30 µM, ± SD of three independent experiments; for IC50: Homo sapiens, MDA-MB-231, 48 h; for IC50, Breast MDA-MB231: 48 h. As for the experimental part: as §1, §2, §3, §4, §5, §6, §7, §8, §9, §10

Bounds are passed on as bounds.

Compound `O=C1/C(=C/c2ccccc2)CCC[C@@]12[C@H](c1ccccc1)[C@H]1C[C@@H]3CCCC[C@@H]3N1[C@]21C(=O)Nc2ccccc21` [Compound 4a, (1. S,1′S,3′S,4a′S,8a′S,9a′R)-3-((E)-Benzylidene)-1′-phenyl-4a′,5′,6′,7′,8′,8a′,9′,9a′-octahydro-1′H-dispiro[cyclohexane-1,2′-pyrrolo[1,2-a]indole-3′,3″-indoline]-2,2″-dione] displayed a melting point of 70 to 71 °C. In data set [1], this compound returned an IC50 of 25 ± 0.57 µM. In data set [2], inhibition was half-maximal at 7.1 ± 0.2 µM (IC50). In data set [3], the concentration for half-maximal inhibition (IC50) is more than 30 µM. In data set [4], this compound registered an IC50 of 24.1 ± 1.1 µM. This compound registered an IC50 in data set [5] of 19.5 ± 0.56 µM.

As to `O=C1/C(=C/c2ccccc2)CCC[C@@]12[C@H](c1ccccc1)[C@H]1C[C@@H]3CCCC[C@@H]3N1[C@]21C(=O)Nc2cc(Cl)ccc21` [Compound 4b, (1. S,1′S,3′S,4a′S,8a′S,9a′R)-3-((E)-Benzylidene)-6″-chloro-1′-phenyl-4a′,5′,6′,7′,8′,8a′,9′,9a′-octahydro-1′H-dispiro[cyclohexane-1,2′-pyrrolo[1,2-a]indole-3′,3″-indoline]-2,2″-dione], the IC50 is 27.7 ± 0.59 µM in data set [1]; more than 30 µM in data set [2]; more than 30 µM in data set [3]; 3.7 ± 1 µM in data set [4]; 24.08 ± 0.02 µM in data set [5].

`O=C1/C(=C/c2ccccc2)CCC[C@@]12[C@H](c1ccccc1)[C@H]1C[C@@H]3CCCC[C@@H]3N1[C@]21C(=O)Nc2ccc(F)cc21` [Compound 4c, (1. S,1′S,3′S,4a′S,8a′S,9a′R)-3-((E)-Benzylidene)-5″-fluoro-1′-phenyl-4a′,5′,6′,7′,8′,8a′,9′,9a′-octahydro-1′H-dispiro[cyclohexane-1,2′-pyrrolo[1,2-a]indole-3′,3″-indoline]-2,2″-dione] registered a melting point of 70 to 71 °C. Also, in data set [1], the midpoint of inhibition, the IC50, lay at 27.8 ± 1.02 µM. The compound further yielded an IC50 in data set [2] of more than 30 µM. Also, in data set [3], the IC50 was more than 30 µM. Besides, in data set [4], the IC50 was 17.9 ± 0.2 µM. In addition, in data set [5], the IC50 stood at 20.6 ± 2.16 µM.

In turn, `O=C1/C(=C/c2ccccc2)CCC[C@@]12[C@H](c1ccccc1)[C@H]1C[C@@H]3CCCC[C@@H]3N1[C@]21C(=O)Nc2ccc([N+](=O)[O-])cc21` [Compound 4d, (1. S,1′S,3′S,4a′S,8a′S,9a′R)-3-((E)-Benzylidene)-5″-nitro-1′-phenyl-4a′,5′,6′,7′,8′,8a′,9′,9a′-octahydro-1′H-dispiro[cyclohexane-1,2′-pyrrolo[1,2-a]indole-3′,3″-indoline]-2,2″-dione] showed a melting point of 111 to 122 °C. The compound further had an IC50 in data set [1] of more than 30 µM. In data set [2], this compound registered an IC50 of more than 30 µM. This compound displayed an IC50 in data set [3] of more than 30 µM. In addition, the midpoint of inhibition in data set [4], the IC50, lay at 29.8 ± 0.1 µM. The compound also yielded an IC50 in data set [5] of more than 30 µM.

Regarding `COc1ccc2c(c1)[C@]1(C(=O)N2)N2[C@H](C[C@@H]3CCCC[C@@H]32)[C@@H](c2ccccc2)[C@@]12CCC/C(=C\c1ccccc1)C2=O` [Compound 4e, (1. S,1′S,3′S,4a′S,8a′S,9a′R)-3-((E)-Benzylidene)-5″-methoxy-1′-phenyl-4a′,5′,6′,7′,8′,8a′,9′,9a′-octahydro-1′H-dispiro[cyclohexane-1,2′-pyrrolo[1,2-a]indole-3′,3″-indoline]-2,2″-dione], the melting point lay within 111 to 122 °C. In data set [1], this compound yielded an IC50 of more than 30 µM. For the same compound, half-maximal inhibition in data set [2] (IC50) required 26.5 ± 0.04 µM. In data set [3], this compound yielded an IC50 of more than 30 µM. This compound also had an IC50 in data set [4] of 19.6 ± 1.2 µM. The same compound returned an IC50 in data set [5] of more than 30 µM.

With `O=C1/C(=C/c2ccc(Br)cc2)CCC[C@@]12[C@H](c1ccc(Br)cc1)[C@H]1C[C@@H]3CCCC[C@@H]3N1[C@]21C(=O)Nc2cc(Cl)ccc21` [Compound 4f, (1. S,1′S,3′S,4a′S,8a′S,9a′R)-3-((E)-4-Bromobenzylidene)-1′-(4-bromophenyl)-6″-chloro-4a′,5′,6′,7′,8′,8a′,9′,9a′-octahydro-1′H-dispiro[cyclohexane-1,2′-pyrrolo[1,2-a]indole-3′,3″-indoline]-2,2″-dione], the melting point is 97 to 98 °C. Besides, the “IC50, Breast MCF-7” value in data set [1] (48 h) was “NS ^c”. For the same compound, the half-inhibitory concentration (IC50) in data set [2] is more than 30 µM. In data set [3], this compound returned an IC50 of more than 30 µM. In data set [4] (48 h), the “IC50, Prostate PC3” value is “inactive”. Also, the IC50 in data set [4] is more than 30 µM. For the same compound, the “IC50, Breast MDA-MB231” value in data set [5] is on record as “NS”.

Compound `O=C1/C(=C/c2ccc(Br)cc2)CCC[C@@]12[C@H](c1ccc(Br)cc1)[C@H]1C[C@@H]3CCCC[C@@H]3N1[C@]21C(=O)Nc2ccc([N+](=O)[O-])cc21` [Compound 4g, (1. S,1′S,3′S,4a′S,8a′S,9a′R)-3-((E)-4-bromobenzylidene)-1′-(4-bromophenyl)-5″-nitro-4a′,5′,6′,7′,8′,8a′,9′,9a′-octahydro-1′H-dispiro[cyclohexane-1,2′-pyrrolo[1,2-a]indole-3′,3″-indoline]-2,2″-dione] gave a melting point of 125 to 126 °C. The IC50 in data set [1] was more than 30 µM. In data set [2], this compound displayed an IC50 of more than 30 µM. The same compound gave an IC50 in data set [3] of 21.7 ± 0.2 µM. This compound also registered an IC50 in data set [4] of 14.3 ± 1 µM. Besides, in data set [5], the “IC50, Breast MDA-MB231” value is “NS”.

`O=C1/C(=C/c2cccc(F)c2)CCC[C@@]12[C@H](c1cccc(F)c1)[C@H]1C[C@@H]3CCCC[C@@H]3N1[C@]21C(=O)Nc2cc(Cl)ccc21` [Compound 4h, (1. S,1′S,3′S,4a′S,8a′S,9a′R)-6″-Chloro-3-((E)-3-fluorobenzylidene)-1′-(3-fluorophenyl)-4a′,5′,6′,7′,8′,8a′,9′,9a′-octahydro-1′H-dispiro[cyclohexane-1,2′-pyrrolo[1,2-a]indole-3′,3″-indoline]-2,2″-dione] showed a melting point of 83 to 84 °C. In data set [1], the IC50 was more than 30 µM. In data set [2], this compound displayed an IC50 of more than 30 µM. In data set [3], the IC50 is more than 30 µM. The IC50 in data set [4] was more than 30 µM. The same compound displayed an IC50 in data set [5] of 14.43 ± 0.09 µM.

For `O=C1/C(=C/c2cccc(F)c2)CCC[C@@]12[C@H](c1cccc(F)c1)[C@H]1C[C@@H]3CCCC[C@@H]3N1[C@]21C(=O)Nc2ccc([N+](=O)[O-])cc21` [Compound 4i, (1. S,1′S,3′S,4a′S,8a′S,9a′R)-3-((E)-3-Fluorobenzylidene)-1′-(3-fluorophenyl)-5″-nitro-4a′,5′,6′,7′,8′,8a′,9′,9a′-octahydro-1′H-dispiro[cyclohexane-1,2′-pyrrolo[1,2-a]indole-3′,3″-indoline]-2,2″-dione], the melting point was 107 to 108 °C. For the same compound, in data set [1], the IC50 was more than 30 µM. In data set [2], this compound showed an IC50 of more than 30 µM. The compound also yielded an IC50 in data set [3] of more than 30 µM. This compound displayed an IC50 in data set [4] of more than 30 µM. Also, the IC50 in data set [5] stood at 7.63 ± 0.08 µM.

In turn, `COc1ccc2c(c1)[C@]1(C(=O)N2)N2[C@H](C[C@@H]3CCCC[C@@H]32)[C@@H](c2cccc(F)c2)[C@@]12CCC/C(=C\c1cccc(F)c1)C2=O` [Compound 4j, (1. S,1′S,3′S,4a′S,8a′S,9a′R)-3-((E)-3-Fluorobenzylidene)-1′-(3-fluorophenyl)-5″-methoxy-4a′,5′,6′,7′,8′,8a′,9′,9a′-octahydro-1′H-dispiro[cyclohexane-1,2′-pyrrolo[1,2-a]indole-3′,3″-indoline]-2,2″-dione] showed a melting point of 92 to 93 °C. Besides, in data set [1], the IC50 was more than 30 µM. In data set [2], this compound returned an IC50 of 11.9 ± 0.04 µM. Further, in data set [3], the IC50 is more than 30 µM. Besides, the IC50 in data set [4] was more than 30 µM. Further, in data set [5], the IC50 amounted to 10.5 ± 0.71 µM.

`O=C1/C(=C/c2cccc(Br)c2)CCC[C@@]12[C@H](c1cccc(Br)c1)[C@H]1C[C@@H]3CCCC[C@@H]3N1[C@]21C(=O)Nc2cc(Cl)ccc21` [Compound 4k, (1. S,1′S,3′S,4a′S,8a′S,9a′R)-3-((E)-3-Bromobenzylidene)-1′-(3-bromophenyl)-6″-chloro-4a′,5′,6′,7′,8′,8a′,9′,9a′-octahydro-1′H-dispiro[cyclohexane-1,2′-pyrrolo[1,2-a]indole-3′,3″-indoline]-2,2″-dione] yielded a melting point of 115 to 116 °C. This compound also came in with an IC50 in data set [1] of more than 30 µM. In addition, in data set [2], the “IC50, Cervical HeLa” value is “inactive” and the IC50 was more than 30 µM. The compound further displayed an IC50 in data set [3] of more than 30 µM. Further, the IC50 in data set [4] is more than 30 µM. Also, the IC50 in data set [5] was more than 30 µM.

As a reminder, the IC50 is the concentration that inhibits the measured activity by half. As usually defined, the melting point is the temperature of the solid-liquid transition.
